# From paper PMC5099944, “Design, synthesis and biological evaluation of hybrids of β-carboline and salicylic acid as potential anticancer and apoptosis inducing agents” (Scientific Reports, 2016)
# Read-outs that look alike come from different tables or passages of the source.
# Key:
# SMMC-7721 cells = experiment: MTT assay, proliferation of SMMC-7721 cells; format: cell-based, human
# Experimental: (§1) The in vitro antitumor activities of the synthesized compounds 7a-l and 8a-l against five human cancer cells were evaluated in MTT assays using 5-fluorouracil (5-FU) and harmine as positive controls. These cells are human hepatocellular carcinoma cells (SMMC-7721 and Hep G2), human colon cancer cell lines (HCT116), human bladder carcinoma cells (EJ), and human lung cancer cells (H460).
# (§2) Hepatocellular carcinoma cells (SMMC-7721 and Hep G2), Human colon cancer cell lines (HCT116), human bladder carcinoma cells (EJ) or human lung cancer cells (H460) at 10^4 cells per well were cultured in 10% FBS DMEM in 96-well flat-bottom microplates overnight. The cells were incubated in triplicate with, or without, different concentrations of each test compound for 48 h. During the last 4 h incubation, 30 μL of tetrazolium dye (MTT) solution (5 mg mL^−1) was added to each well. The resulting MTT-formazan crystals were dissolved in 150 μL DMSO, and absorbance was measured spectrophotometrically at 570 nm using an ELISA plate reader. The inhibition induced by each test compound at the indicated concentrations was expressed as a percentage. The concentration required for 50% inhibition (IC50) was calculated using the software (GraphPadPrism Version 4.03).
# Hep G2 cells = experiment: MTT assay, proliferation of Hep G2 cells; format: cell-based; details: Homo sapiens, HepG2, 48 h, read-out: In vitro cytotoxicity (IC50) Hep G2
# Experimental: as §1, §2
# HCT116 cells = experiment: MTT assay, proliferation of HCT116 cells; format: cell-based; details: Homo sapiens, HCT-116, 48 h, read-out: In vitro cytotoxicity (IC50) HCT116
# Experimental: as §1, §2
# EJ cells = experiment: MTT assay, proliferation of EJ cells; format: cell-based; details: 48 h, EJ human bladder carcinoma cells, read-out: In vitro cytotoxicity (IC50) EJ
# Experimental: as §1, §2
# H460 cells = experiment: MTT assay, proliferation of H460 cells; format: cell-based; details: NCI-H460, 48 h, H460 human lung cancer cells, read-out: In vitro cytotoxicity (IC50) H460
# Experimental: as §1, §2
# [1] = test system: human cancer cells (SMMC-7721, Hep G2, HCT116, EJ, H460); experiment: MTT assay, summary statements across several human cancer cell lines; format: cell-based; details: Homo sapiens; cancer cell lines tested (SMMC-7721, Hep G2, HCT116); MTT; read-out: Antitumor activities (IC50) of capped analogs
# Experimental: as §1, §2
# [2] = Homo sapiens, SMMC-7721, 48 h, read-out: In vitro cytotoxicity (IC50) SMMC-7721, MTT assay, 48 h, SMMC-7721 human hepatocellular carcinoma cells
IC50 [1] [µM],Structure (SMILES),IC50 (SMMC-7721 cells; [2]) [µM],IC50 (Hep G2 cells) [µM],IC50 (HCT116 cells) [µM],IC50 (EJ cells) [µM],IC50 (H460 cells) [µM],"IC50 (SMMC-7721 cells; human, 48 h) [µM]","inhibition at 25 µM (SMMC-7721 cells; Homo sapiens, SMMC-7721, 25 μM, 48 h, MTT assay, read-out: Inhibition of SMMC-7721 cell proliferation) [%]","IC50 (SMMC-7721 cells; Homo sapiens, SMMC-7721, 48 h, read-out: In vitro cytotoxicity (IC50) SMMC-7721) [µM]"
–,"Cc1ccccc1C(=O)NCCCNC(=O)c1cc2c(cn1)[nH]c1ccccc12 [7a, N-(3-(2-Methylbenzamido)propyl)-9H-pyrido[3,4-b]indole-3-carboxamide]",34.7,32,36,25.3,31.1,–,–,–
–,"Cc1ccccc1C(=O)NCCCNC(=O)c1cc2c([nH]c3ccccc32)c(C)n1 [7b, 1-Methyl-N-(3-(2-methylbenzamido)propyl)-9H-pyrido[3,4-b]indole-3-carboxamide]",27.3,23.7,28.9,23.2,30.5,–,–,–
–,"COc1ccc(-c2nc(C(=O)NCCCNC(=O)c3ccccc3C)cc3c2[nH]c2ccccc23)cc1 [7c, 1-(4-Methoxyphenyl)-N-(3-(2-methylbenzamido)propyl)-9H-pyrido[3,4-b]indole-3-carboxamide]",> 50,> 50,> 50,> 50,> 50,–,–,–
–,"Cc1ccccc1C(=O)NCCCCNC(=O)c1cc2c(cn1)[nH]c1ccccc12 [7d, N-(4-(2-Methylbenzamido)butyl)-9H-pyrido[3,4-b]indole-3-carboxamide]",24.3,19.1,21.4,18.4,23.2,–,–,–
–,"Cc1ccccc1C(=O)NCCCCNC(=O)c1cc2c([nH]c3ccccc32)c(C)n1 [7e, 1-Methyl-N-(4-(2-methylbenzamido)butyl)-9H-pyrido[3,4-b]indole-3-carboxamide]",17.8,15.2,14.8,13.3,20.1,–,–,–
–,"COc1ccc(-c2nc(C(=O)NCCCCNC(=O)c3ccccc3C)cc3c2[nH]c2ccccc23)cc1 [7f, 1-(4-Methoxyphenyl)-N-(4-(2-methylbenzamido)butyl)-9H-pyrido[3,4-b]indole-3-carboxamide]",25.6,31.2,32.6,29.4,38.4,–,–,–
–,"Cc1ccccc1C(=O)NCCCCCNC(=O)c1cc2c(cn1)[nH]c1ccccc12 [7g, N-(5-(2-Methylbenzamido)pentyl)-9H-pyrido[3,4-b]indole-3-carboxamide]",15.9,14.3,17.1,15.3,19.4,–,–,–
–,"Cc1ccccc1C(=O)NCCCCCNC(=O)c1cc2c([nH]c3ccccc32)c(C)n1 [7h, 1-Methyl-N-(5-(2-methylbenzamido)pentyl)-9H-pyrido[3,4-b]indole-3-carboxamide]",12.8,11.3,15.8,12.1,13.2,–,–,–
–,"COc1ccc(-c2nc(C(=O)NCCCCCNC(=O)c3ccccc3C)cc3c2[nH]c2ccccc23)cc1 [7i, 1-(4-Methoxyphenyl)-N-(5-(2-methylbenzamido)pentyl)-9H-pyrido[3,4-b]indole-3-carboxamide]",38.2,> 50,45.2,> 50,27.5,–,–,–
–,"Cc1ccccc1C(=O)NCCCCCCNC(=O)c1cc2c(cn1)[nH]c1ccccc12 [7j, N-(6-(2-Methylbenzamido)hexyl)-9H-pyrido[3,4-b]indole-3-carboxamide]",23.3,28,26.6,18.2,15.3,–,–,–
–,"Cc1ccccc1C(=O)NCCCCCCNC(=O)c1cc2c([nH]c3ccccc32)c(C)n1 [7k, 1-Methyl-N-(6-(2-methylbenzamido)hexyl)-9H-pyrido[3,4-b]indole-3-carboxamide]",11.3,16.9,15.3,13.7,14.3,–,–,–
–,"COc1ccc(-c2nc(C(=O)NCCCCCCNC(=O)c3ccccc3C)cc3c2[nH]c2ccccc23)cc1 [7l, 1-(4-Methoxyphenyl)-N-(6-(2-methylbenzamido)hexyl)-9H-pyrido[3,4-b]indole-3-carboxamide]",> 50,–,> 50,–,> 50,–,–,–
–,"O=C(NCCCNC(=O)c1ccccc1O)c1cc2c(cn1)[nH]c1ccccc12 [8a, N-(3-(2-Hydroxybenzamido)propyl)-9H-pyrido[3,4-b]indole-3-carboxamide]",22.6,18.9,20.1,15.9,25.5,–,–,–
–,"Cc1nc(C(=O)NCCCNC(=O)c2ccccc2O)cc2c1[nH]c1ccccc12 [8b, N-(3-(2-Hydroxybenzamido)propyl)−1-methyl-9H-pyrido[3,4-b]indole-3-carboxamide]",19.1,–,13.6,15.3,22.2,–,–,–
–,"COc1ccc(-c2nc(C(=O)NCCCNC(=O)c3ccccc3O)cc3c2[nH]c2ccccc23)cc1 [8c, N-(3-(2-Hydroxybenzamido)propyl)-1-(4-methoxyphenyl)-9H-pyrido[3,4-b]indole-3-carboxamide]",36,45.8,33.2,38.6,> 50,–,–,–
–,"O=C(NCCCCNC(=O)c1ccccc1O)c1cc2c(cn1)[nH]c1ccccc12 [8d, N-(4-(2-Hydroxybenzamido)butyl)-9H-pyrido[3,4-b]indole-3-carboxamide]",13,11.7,15.9,12.1,15.2,–,–,–
–,"Cc1nc(C(=O)NCCCCNC(=O)c2ccccc2O)cc2c1[nH]c1ccccc12 [8e, N-(4-(2-Hydroxybenzamido)butyl)−1-methyl-9H-pyrido[3,4-b]indole-3-carboxamide]",7.93,9.26,9.36,9.01,11.9,–,–,–
–,"COc1ccc(-c2nc(C(=O)NCCCCNC(=O)c3ccccc3O)cc3c2[nH]c2ccccc23)cc1 [8f, N-(4-(2-Hydroxybenzamido)butyl)-1-(4-methoxyphenyl)-9H-pyrido[3,4-b]indole-3-carboxamide]",20.1,17.7,18.2,15,22.8,–,–,–
–,"O=C(NCCCCCNC(=O)c1ccccc1O)c1cc2c(cn1)[nH]c1ccccc12 [8g, N-(5-(2-Hydroxybenzamido)pentyl)-9H-pyrido[3,4-b]indole-3-carboxamide]",10.7,9.12,9.18,8.71,12.5,–,–,–
–,"COc1ccc(-c2nc(C(=O)NCCCCCNC(=O)c3ccccc3O)cc3c2[nH]c2ccccc23)cc1 [8i, N-(5-(2-Hydroxybenzamido)pentyl)-1-(4-methoxyphenyl)-9H-pyrido[3,4-b]indole-3-carboxamide]",46.8,30.8,> 50,> 50,38.5,–,–,–
–,"O=C(NCCCCCCNC(=O)c1ccccc1O)c1cc2c(cn1)[nH]c1ccccc12 [8j, N-(6-(2-Hydroxybenzamido)hexyl)-9H-pyrido[3,4-b]indole-3-carboxamide]",13.4,17.2,18.6,16.5,21.5,–,–,–
–,"Cc1nc(C(=O)NCCCCCCNC(=O)c2ccccc2O)cc2c1[nH]c1ccccc12 [8k, N-(6-(2-Hydroxybenzamido)hexyl)-1-methyl-9H-pyrido[3,4-b]indole-3-carboxamide]",10.1,13.6,10.7,13.2,11.4,–,–,–
–,"COc1ccc(-c2nc(C(=O)NCCCCCCNC(=O)c3ccccc3O)cc3c2[nH]c2ccccc23)cc1 [8l, N-(6-(2-Hydroxybenzamido)hexyl)-1-(4-methoxyphenyl)-9H-pyrido[3,4-b]indole-3-carboxamide]",> 50,42,> 50,–,> 50,–,–,–
> 50,"CC(=O)NCCCCCNC(=O)c1cc2c([nH]c3ccccc32)c(C)n1 [10a, N-(5-acetamidopentyl)-1-methyl-9H-pyrido[3,4-b]indole-3-carboxamide]",58.6 ± 6.7,> 50,> 50,–,–,> 50,–,–
> 50,"Cc1nc(C(=O)NCCCCCNC(=O)c2ccccc2)cc2c1[nH]c1ccccc12 [10b, N-(5-benzamidopentyl)-1-methyl-9H-pyrido[3,4-b]indole-3-carboxamide]",> 100,> 50,> 50,–,–,> 50,–,–
–,"O=C(O)c1ccccc1O [SA, salicylic acid]",–,–,–,–,–,–,~15,–
–,"COc1ccc2c(c1)[nH]c1c(C)nccc12 [harmine, reference compound]",–,55.3,46.7,–,–,–,–,49.1
